# Measured values reported in publication PMC6039436, “Radiobrominated benzimidazole-quinoline derivatives as Platelet-derived growth factor receptor beta (PDGFRβ) imaging probes” (Scientific Reports, 2018).
# Biological target: T1, PDGFRβ (BxPC3-luc cells) (Homo sapiens, UniProt P09619)
# T1 construct: host or cells: BxPC3-luc cells
# Assay: Competitive binding assay of [^125I]4 with BxPC3-luc cells
# Conditions: displacement of [^125I]4, BxPC3-luc cells, 37 °C, 4 h
# Method: We investigated the competitive binding of [^125I]4 to BxPC3-luc cells with PDGFRβ ligand, 1, 2, and 3.
# BxPC3-luc cells in medium containing 10% FBS and antibiotics were seeded on 24-well plates (50,000 cells/wells) and incubated for 24 h in a 5% CO2 incubator at 37 °C. Nine concentrations of displacing nonradiolabeled ligands (1, 2 and 3) (ranging from 1 pM to 1 mM) and [^125I]4 in medium without FBS were incubated at 37 °C for 4 h. After washing the cells twice using 250 µL of ice-cold PBS, the unbound radioligand was removed. The cells were dissolved using 250 µL of 1 M NaOH and wells were washed with 250 µL of 1 M NaOH. The bound radioactivity was determined using a gamma counter.
# All data were statisticaly analyzed using GraphPad 5.0 software (La Jolla, CA, USA) and expressed as mean ± standard deviation (SD). Significance for in vitro blocking experiments was determined by a one-way analysis of variance (ANOVA) followed by Dunnett’s post hoc test compared to the control group. Significance in cell viability assays was determined by ANOVA followed by Tukey’s post hoc test. IC50 values for the binding assay were calculated by nonlinear regression. Significant differences in biodistribution experiments between [^77Br]2 and [^77Br]3 groups were determined using unpaired Student’s t-test. Significance for in vivo blocking studies between control and blocking groups were determined by unpaired Student’s t-test. Results were considered statistically significant at p < 0.05.
# T1 sequence (P09619 33-1106): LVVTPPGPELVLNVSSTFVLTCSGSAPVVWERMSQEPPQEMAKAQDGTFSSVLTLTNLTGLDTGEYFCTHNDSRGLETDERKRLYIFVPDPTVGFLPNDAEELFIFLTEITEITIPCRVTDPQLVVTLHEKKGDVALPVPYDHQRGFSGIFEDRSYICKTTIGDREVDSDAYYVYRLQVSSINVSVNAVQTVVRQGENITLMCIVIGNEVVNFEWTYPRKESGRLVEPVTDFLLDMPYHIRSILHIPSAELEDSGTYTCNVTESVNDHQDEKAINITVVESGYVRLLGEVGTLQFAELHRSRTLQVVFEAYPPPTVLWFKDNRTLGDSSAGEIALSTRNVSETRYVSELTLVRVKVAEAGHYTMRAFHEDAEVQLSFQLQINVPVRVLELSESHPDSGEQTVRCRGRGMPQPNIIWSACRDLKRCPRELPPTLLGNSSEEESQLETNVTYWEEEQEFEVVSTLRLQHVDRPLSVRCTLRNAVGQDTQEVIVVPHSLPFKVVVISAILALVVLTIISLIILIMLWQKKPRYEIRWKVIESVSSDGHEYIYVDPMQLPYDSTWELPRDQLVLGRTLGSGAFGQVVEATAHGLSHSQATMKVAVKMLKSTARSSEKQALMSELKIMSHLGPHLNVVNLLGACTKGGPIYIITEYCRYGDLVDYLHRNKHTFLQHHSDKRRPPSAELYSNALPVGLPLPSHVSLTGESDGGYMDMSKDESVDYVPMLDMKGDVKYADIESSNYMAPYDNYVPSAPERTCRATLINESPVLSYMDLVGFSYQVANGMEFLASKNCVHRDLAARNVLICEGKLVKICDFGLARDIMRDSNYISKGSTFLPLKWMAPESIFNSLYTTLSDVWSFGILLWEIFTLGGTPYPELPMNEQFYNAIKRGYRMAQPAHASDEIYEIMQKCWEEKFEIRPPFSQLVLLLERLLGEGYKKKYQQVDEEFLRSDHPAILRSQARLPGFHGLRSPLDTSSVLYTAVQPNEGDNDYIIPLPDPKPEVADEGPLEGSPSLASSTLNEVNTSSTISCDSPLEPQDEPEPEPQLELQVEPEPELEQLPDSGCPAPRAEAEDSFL
smiles,measurement,value
"COCCOc1ccc2c(c1)ncn2-c1ccc2cccc(N3CCC(NC(=O)c4cccc(Br)c4)CC3)c2n1 [Compound 3, N-3-bromobenzoyl-1-{2-[5-(2-methoxyethoxy)-1H-benzo[d]imidazol-1-yl]quinolin-8-yl}-piperidin-4-amine]",IC50,1280 nM
"COCCOc1ccc2c(c1)ncn2-c1ccc2cccc(N3CCC(N)CC3)c2n1 [Compound 1, 1-{2-[5-(2-methoxyethoxy)-1H-benzo[d]imidazol-1-yl]quinolin-8-yl}piperidin-4-amine, reference compound]",IC50,183 ± 8 nM
